From the supplement of paper PMC10331698 come the findings set out here.

± gives the standard deviation of the averaged measurements.

Holding throughout (assay): level (log10 ratio to DMSO vehicle control); higher = higher biomarker level / cell amount than vehicle control
Compound in assay [1]: CN(C(=O)C(F)(F)C(F)(F)C(F)(F)F)[Si](C)(C)C [N-Methyl-N-trimethylsilylheptafluorobutyramide] (in DMSO)
The method, then:
(§1)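 BioMAP Diversity Plus panel of 12 human primary cell co-culture systems (3C, 4H, LPS, SAg, BT, BF4T, BE3C, CASM3C, HDF3CGF, KF3CT, MyoF, Mphg). Compounds were added 1 h before stimulation and left for 24 h (MyoF 48 h; BT 72 h for soluble read-outs or 6 d for IgG). Biomarkers were read by ELISA, cytotoxicity by SRB, PBMC viability and proliferation by Alamar Blue. Each well value was divided by the mean of 8 DMSO control wells on the same plate and log10 transformed; duplicate blinded samples were tested at 4 concentrations.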

Compound in assay [2]: C[C@@H]1C[C@H]2[C@@H]3CCC4=CC(=O)C=C[C@]4(C)[C@@]3(F)[C@@H](O)C[C@]2(C)[C@@]1(O)C(=O)COP(=O)(O)O [Dexamethasone sodium phosphate] (in DMSO)
On the procedure:
as §1

Compound in assay [3]: O=C(O)C(F)(F)C(F)(F)C(F)(F)OC(F)(F)F [Perfluoro(4-methoxybutanoic) acid] (in DMSO)
The method, then: as §1

Compound in assay [4]: O=C(O)C(F)(OC(F)(F)C(F)(OC(F)(F)C(F)(OC(F)(F)C(F)(F)C(F)(F)F)C(F)(F)F)C(F)(F)F)C(F)(F)F [Perfluoro-(2,5,8-trimethyl-3,6,9-trioxadodecanoic)acid] (in DMSO)
On the procedure: as §1

Compound in assay [5]: O=C(O)CCC(F)(C(F)(F)F)C(F)(F)F [4,4-bis(Trifluoromethyl)-4-fluoropropanoic acid] (in DMSO)
On the procedure: as §1

Compound in assay [6]: OCC(F)(F)C(F)(F)C(F)(F)C(F)(F)C(F)(F)C(F)(F)CO [1H,1H,8H,8H-Perfluorooctane-1,8-diol] (in DMSO)
The method, then:
as §1

As for lMphg:IL-1alpha, the “level (log10)” value in assay [1] (6700 nM) was -0.038 ± 0.0014; in assay [1] (20000 nM), -0.034 ± 0.0071; in assay [1] (60000 nM), 0.017 ± 0.052; in assay [2] (1500 nM), -0.0345 ± 0.005; in assay [2] (4400 nM), -0.0335 ± 0.0092; in assay [2] (13000 nM), -0.102 ± 0.05. Further, the “level (log10)” value in assay [2] (40000 nM) is -0.096 ± 0.0099; in assay [3] (6700 nM), -0.051 ± 0.018; in assay [3] (20000 nM) it was -0.0345 ± 0.029; in assay [3] (60000 nM), 0.027 ± 0.068; in assay [4] (1100 nM), -0.0225 ± 0.021; in assay [4] (3300 nM), -0.026 ± 0.016. Further, the “level (log10)” value is 0.0045 ± 0.0078 in assay [4] (10000 nM); 0.0125 ± 0.07 in assay [5] (6700 nM); 0.022 ± 0.011 in assay [5] (20000 nM); 0.0125 ± 0.026 in assay [5] (60000 nM); -0.011 ± 0.041 in assay [6] (6700 nM); -0.012 ± 0.0085 in assay [6] (20000 nM). Besides, the “level (log10)” value in assay [6] (60000 nM) worked out at 0.0855 ± 0.047.
Take lMphg:M-CSF: the “level (log10)” value in assay [1] (6700 nM) was -0.033 ± 0.014; in assay [1] (20000 nM), -0.018 ± 0.025; in assay [1] (60000 nM), -0.0045 ± 0.0064; in assay [2] (1500 nM), -0.022 ± 0.034; in assay [2] (4400 nM), -0.031 ± 0.058; in assay [2] (13000 nM) it was -0.0455 ± 0.028. The “level (log10)” value in assay [2] (40000 nM) was -0.0495 ± 0.0021; in assay [3] (6700 nM), -0.0095 ± 0.0078; in assay [3] (20000 nM) it was -0.019 ± 0.011; in assay [3] (60000 nM) it was -0.0115 ± 0.0064; in assay [4] (1100 nM), -0.0095 ± 0.00071; in assay [4] (3300 nM) it was -0.0065 ± 0.022. For the same test system, the “level (log10)” value in assay [4] (10000 nM) is 0.0145 ± 0.021; in assay [5] (6700 nM) it was -0.0115 ± 0.043; in assay [5] (20000 nM) it was -0.0135 ± 0.032; in assay [5] (60000 nM), -0.0165 ± 0.019; in assay [6] (6700 nM), -0.015 ± 0.013; in assay [6] (20000 nM) it was -0.013 ± 0.016. Also, in assay [6] (60000 nM), the “level (log10)” value is 0.013 ± 0.067.
With lMphg:SRB, the “level (log10)” value in assay [1] (6700 nM) was -0.0015 ± 0.005; in assay [1] (20000 nM), 0 ± 0.0099; in assay [1] (60000 nM), 0.003 ± 0.0014; in assay [2] (1500 nM), -0.0045 ± 0.0092; in assay [2] (4400 nM), -0.0125 ± 0.0078; in assay [2] (13000 nM), -0.006 ± 0.0014. In addition, the “level (log10)” value in assay [2] (40000 nM) was -0.0265 ± 0.0021; in assay [3] (6700 nM), -0.008 ± 0.0099; in assay [3] (20000 nM) it was -0.0135 ± 0.0035; in assay [3] (60000 nM) it was -0.0055 ± 0.016; in assay [4] (1100 nM) it was -0.005; in assay [4] (3300 nM) it was -0.0115 ± 0.0092. The “level (log10)” value is -0.005 ± 0.0042 in assay [4] (10000 nM); -0.0025 ± 0.0064 in assay [5] (6700 nM); -0.0005 ± 0.0064 in assay [5] (20000 nM); 0.0065 ± 0.0021 in assay [5] (60000 nM); -0.0125 ± 0.0078 in assay [6] (6700 nM); -0.0115 ± 0.018 in assay [6] (20000 nM). The “level (log10)” value in assay [6] (60000 nM) is -0.0245 ± 0.00071.
Consider lMphg:SRB-Mphg, for which the “level (log10)” value in assay [1] (6700 nM) was 0.0035 ± 0.00071; in assay [1] (20000 nM), 0.002 ± 0.031; in assay [1] (60000 nM), 0.015 ± 0.02; in assay [2] (1500 nM), -0.0225 ± 0.022; in assay [2] (4400 nM), -0.0625 ± 0.005; in assay [2] (13000 nM) it was -0.0715 ± 0.018. In addition, the “level (log10)” value in assay [2] (40000 nM) is -0.0805 ± 0.057; in assay [3] (6700 nM) it was -0.013 ± 0.02; in assay [3] (20000 nM), 0.0125 ± 0.012; in assay [3] (60000 nM), 0.0115 ± 0.0021; in assay [4] (1100 nM) it was -0.0035 ± 0.00071; in assay [4] (3300 nM) it was -0.0135 ± 0.0092. Further, the “level (log10)” value in assay [4] (10000 nM) was 0.014 ± 0.014; in assay [5] (6700 nM), 0.0125 ± 0.0021; in assay [5] (20000 nM), -0.0025 ± 0.012; in assay [5] (60000 nM), 0.002 ± 0.016; in assay [6] (6700 nM), -0.053 ± 0.079; in assay [6] (20000 nM) it was -0.031 ± 0.014. The “level (log10)” value in assay [6] (60000 nM) is -0.018 ± 0.027.
As for lMphg:sIL-10, the “level (log10)” value is -0.006 ± 0.061 in assay [1] (6700 nM); -0.135 ± 0.1 in assay [1] (20000 nM); -0.0905 ± 0.043 in assay [1] (60000 nM); -0.286 ± 0.05 in assay [2] (1500 nM); -0.503 ± 0.054 in assay [2] (4400 nM); -0.62 ± 0.056 in assay [2] (13000 nM). The “level (log10)” value in assay [2] (40000 nM) is -0.646 ± 0.054; in assay [3] (6700 nM), 0 ± 0.03; in assay [3] (20000 nM), -0.017 ± 0.0014; in assay [3] (60000 nM), -0.0345 ± 0.023; in assay [4] (1100 nM), -0.0195 ± 0.0021; in assay [4] (3300 nM), -0.0265 ± 0.084. Further, the “level (log10)” value in assay [4] (10000 nM) is -0.05 ± 0.072; in assay [5] (6700 nM), -0.0325 ± 0.005; in assay [5] (20000 nM), -0.062 ± 0.075; in assay [5] (60000 nM), -0.003 ± 0.12; in assay [6] (6700 nM), -0.175 ± 0.042; in assay [6] (20000 nM), -0.17 ± 0.037. Moreover, the “level (log10)” value in assay [6] (60000 nM) was -0.216 ± 0.0057.
